Data on 21 molecules can be found in US20250059141A1, “TLR MODULATOR AND USE THEREOF” (DUALITY BIOLOGICS (SUZHOU) CO., LTD., priority 2021, published 2025).

The target in experiment [1] is T1, hTLR8 (human Toll-like receptor 8) (Homo sapiens, UniProt Q9NR97).
T1 construct: host or cells: HEK-Blue hTLR8 (HEK293-derived reporter cells)
T1 sequence (Q9NR97 27-1041): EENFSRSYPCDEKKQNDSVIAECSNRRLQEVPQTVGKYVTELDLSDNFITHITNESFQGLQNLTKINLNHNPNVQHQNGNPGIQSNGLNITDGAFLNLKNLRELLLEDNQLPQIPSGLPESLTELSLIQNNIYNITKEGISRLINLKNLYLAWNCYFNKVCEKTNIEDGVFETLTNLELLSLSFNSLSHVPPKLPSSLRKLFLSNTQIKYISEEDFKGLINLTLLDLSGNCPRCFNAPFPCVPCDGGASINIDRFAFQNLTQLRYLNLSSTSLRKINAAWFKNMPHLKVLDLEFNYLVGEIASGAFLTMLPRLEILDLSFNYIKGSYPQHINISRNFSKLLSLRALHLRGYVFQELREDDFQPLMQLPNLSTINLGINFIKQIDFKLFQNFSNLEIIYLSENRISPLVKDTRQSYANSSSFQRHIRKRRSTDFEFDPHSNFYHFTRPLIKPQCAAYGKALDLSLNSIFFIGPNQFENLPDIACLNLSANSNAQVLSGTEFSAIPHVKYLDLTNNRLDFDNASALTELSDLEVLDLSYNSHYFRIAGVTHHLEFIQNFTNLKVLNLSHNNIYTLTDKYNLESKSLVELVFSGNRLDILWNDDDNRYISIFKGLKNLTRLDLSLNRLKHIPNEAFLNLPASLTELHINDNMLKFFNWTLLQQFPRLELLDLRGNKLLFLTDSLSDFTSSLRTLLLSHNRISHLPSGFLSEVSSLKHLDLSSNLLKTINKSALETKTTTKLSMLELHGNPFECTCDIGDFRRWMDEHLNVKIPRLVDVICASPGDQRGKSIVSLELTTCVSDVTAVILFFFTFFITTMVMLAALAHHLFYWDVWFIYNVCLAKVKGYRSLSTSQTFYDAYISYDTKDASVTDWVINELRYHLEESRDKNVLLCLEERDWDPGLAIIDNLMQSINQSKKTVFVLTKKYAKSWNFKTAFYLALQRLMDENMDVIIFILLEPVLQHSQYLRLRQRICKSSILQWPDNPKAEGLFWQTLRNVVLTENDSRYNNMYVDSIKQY
Briefly: HEK-Blue hTLR8 reporter assay (QUANTI-Blue, OD650). The format is cell-based. The following applies: HEK-Blue hTLR8 cells, 24 h, read-out: Reporter assay TLR8 EC50. As to the method: In this example, the agonistic activity of the compounds of the present application on hTLR7 (human Toll-like receptor 7) and hTLR8 (human Toll-like receptor 8) was assessed; the induction activity of the compounds on human PBMCs for TNF-α and IFN-α production was assessed in human PBMCs (human peripheral blood mononuclear cells).
All compounds were formulated in DMSO into 30 mM stock solutions and preserved at 4° C. The reference compound ([…], Cat. No. tlrl-r848-5) was purchased from InvivoGen and formulated into a 5 mg/mL stock solution in DMSO and preserved in a freezer at −20° C. HEK-Blue hTLR7 and HEK-Blue hTLR8 cell lines were purchased from InvivoGen, and human PBMCs were purchased from Shanghai Saily Biotechnology Co., Ltd. (Cat. No. XFB—HP100B).
The major instruments used in this study were multifunctional microplate reader Flexstation III (Molecular Device), Envision (Perkin Elmer), M2e (Molecular Device), and Echo555 (Labcyte). 2.1 Agonistic activity of compounds on hTLR7 (human Toll-like receptor 7) and hTLR8 (human Toll-like receptor 8)
Compound dilution: The compounds of the present application are diluted in DMSO, for example, to about 15 mM. The reference compound was added to the plates in sequence after dilution. The compounds were serially 3-fold diluted to 10 concentrations and added to 96-well plates in duplicate.
For the negative control wells, DMSO was added at 0.2 μL/well, and the reference compound was added to the positive control wells. The final concentration of DMSO was 0.2%.
Cell plating: When an 80% confluence of HEK Blue hTLR7&8 cells in the culture flask was observed under a microscope, the culture medium was discarded, 10 mL of detection medium was added, and the cells were separated by pipetting. The cells were counted on a cytometer and diluted to 500,000 cells/mL. The cells were plated at 100 μL/50,000 cells/well in the 96-well plates containing the compounds. The compounds and cells were co-incubated at 37° C. in a 5% CO2 incubator for 24 hours.
Compound activity detection: 20 μL of cell supernatant was taken from each well and added to a plate containing QUANTI-Blue™ reagent at 180 μL/well. The plate was incubated at 37° C. for 1 hour, and the absorbance at 650 nm (OD650) was measured on the multifunctional microplate reader Flexstation III.
Compound activity data analysis: The OD650 values were analyzed by GraphPad Prism software and fitted to give dose-response curves of the compounds. The EC50 values of compounds were calculated.

In experiment [2] the test system is TNF-α production in human PBMCs. Kind of experiment: Induction of TNF-α in human PBMCs (ELISA). To be noted: PBMC, 24 h, read-out: PBMC assay TNFa EC50. The class given is cell-based. Here is the method:
In this example, the induction activity of the compounds of the present application on human PBMCs for TNF-α and IFN-α production was assessed in human PBMCs (human peripheral blood mononuclear cells). The human PBMCs were purchased from Shanghai Saily Biotechnology Co., Ltd. (Cat. No. XFB—HP100B). PBMC cells were treated with the compounds. The compounds of the present application are diluted in DMSO, for example, to about 15 mM. The reference compound was added to the plates in sequence after diluted to 5 mg/mL. The compounds were serially 3- or 4-fold diluted to 8 concentrations and added to plates in duplicate (Table 2-1 for serial 3-fold dilutions and Table 2-2 for serial 4-fold dilutions). For the negative control wells, DMSO was added at 0.4 μL/well, and a 5 mg/mL reference compound solution was added to the positive control wells at 0.4 μL/well. The final concentration of DMSO was 0.2%. Frozen human PBMCs in cryopreservation tubes were quickly thawed in a 37° C. water bath and transferred into 50-mL centrifuge tubes. Prewarmed RPMI1640 medium was gradually added and the mixture was well mixed and centrifuged for 15 min before the supernatant was discarded. The cells were resuspended in a culture medium and counted. The cell suspension was adjusted to 2.5×10^6 cells/mL with the culture medium. Diluted cells were added at 200 μL/500,000 cells/well in 96-well plates containing the compounds. The cell plates were incubated at 37° C./5% CO2 for 24 h.
The plate was then washed thrice. […] Termination of reaction: The reaction was terminated by quickly adding the stop solution at 100 μL/well. Plate reading: The reading at wavelength 450 nm was detected by an M2e instrument within 10 min after the termination.
Compound activity data analysis: The OD450 values were converted to TNF-α and IFN-α contents by GraphPad Prism software analysis and fitted to give dose-response curves of the compounds. The EC50 values for the compounds were calculated, where the Emax values are the maximal values for TNF-α and IFN-α.
Background: In an ELISA, binding on a coated surface is turned into a signal by an enzyme label.

Setting [3] is: serial 4-fold dilutions, class symbols.

Read-outs that look alike come from different tables or passages of the source.

With `CCCN(OCc1ccc(N)cc1)C(=O)C1=Cc2ccc(C(=O)N3CC4(COC4)C3)cc2N=C(N)C1` [Compound 95], the EC50 in experiment [1] (class symbols) and in experiment [2] (setting [3]) was ≤ 10 nM each time.
As to `CCCN(OCc1ccc(N)cc1)C(=O)C1=Cc2ccc(C(=O)N3CC(CO)C3)cc2N=C(N)C1` [Compound 37], the EC50 – broadly, the midpoint of the concentration-response curve – was in the range of 10 to 100 nM in experiment [1] (class symbols) and 10 to 50 nM in experiment [2] (setting [3]).
On to `CCCN(OCc1ccc(N)cc1)C(=O)C1=Cc2ccc(-c3ccc4c(c3)C(=O)OC4)cc2N=C(N)C1` [Compound 43], for which the concentration for a half-maximal effect (EC50) in experiment [1] was < 1.5 nM; in experiment [2] (serial 3-fold dilutions), 8.04 nM.
Consider `CCCN(OCc1ccc(N)cc1)C(=O)C1=Cc2ccc(-c3cncc(C#N)c3)cc2N=C(N)C1` [Compound 50], for which the values for the 50% effective concentration (EC50) in experiment [1] and in experiment [2] (serial 3-fold dilutions) were 1.5 nM and 7.7 nM, respectively.
For the molecule `CCCN(OCc1ccc(N)cc1)C(=O)C1=Cc2ccc(C(=O)N3CCN(C)CC3)cc2N=C(N)C1` [Compound 93], the EC50 in experiment [1] (class symbols) and in experiment [2] (setting [3]) was ≤ 10 nM each time.
With `CCCN(OCc1ccc(N)cc1)C(=O)C1=Cc2ccc(-c3cncc(S(=O)(=O)N4CCNCC4)c3)cc2N=C(N)C1` [Compound 69], the concentration giving a half-maximal response (EC50) in experiment [1] (class symbols) and in experiment [2] (setting [3]) was ≤ 10 nM throughout.
In the case of `CCCN(OCc1ccc(N)cc1)C(=O)C1=Cc2ccc(C(=O)N3CCOC(CO)C3)cc2N=C(N)C1` (stereo not drawn) [Compound 47], the values for the half-maximal effective concentration (EC50) in experiment [1] (class symbols) and in experiment [2] (setting [3]) were 10 to 100 nM and 10 to 50 nM, respectively.
Consider `NC1=Nc2cc(-c3cncc(CO)c3)ccc2C=C(C(=O)N(CC2CC2)OCc2ccc(N)cc2)C1` [Compound 45], for which the figures for the EC50 in experiment [1] and in experiment [2] (serial 3-fold dilutions) were 2.3 nM and 7.33 nM, respectively.
`CCCN(OCc1ccc(N)cc1)C(=O)C1=Cc2ccc(-c3cncc([S+](C)[O-])c3)cc2N=C(N)C1` (stereo not drawn) [Compound 73]: the concentration for a half-maximal effect (EC50) in experiment [1] (class symbols) and in experiment [2] (setting [3]) was ≤ 10 nM throughout.
`CCCN(OCc1ccc(N)cc1)C(=O)C1=Cc2ccc(-c3cncc(S(N)(=O)=O)c3)cc2N=C(N)C1` [Compound 36]: the EC50 in experiment [1] came to 1.71 nM; in experiment [2] (serial 3-fold dilutions) it was 12.2 nM.
For `CCCN(OCc1ccc(N)cc1)C(=O)C1=Cc2ccc(-c3cncc(Cl)c3)cc2N=C(N)C1` [Compound 49], the EC50 in experiment [1] was 6.6 nM; in experiment [2] (serial 3-fold dilutions), 26.1 nM.
As for `CCCN(OCc1ccc(N)cc1)C(=O)C1=Cc2ccc(C(=O)NCCO)cc2N=C(N)C1` [Compound 48], the EC50 in experiment [1] (class symbols) was 10 to 100 nM; in experiment [2] (setting [3]) it was 10 to 50 nM.
On the same counts, the results for `CCCN(OCc1ccc(N)cc1)C(=O)C1=Cc2ccc(-c3cncc(C(=O)O)c3)cc2N=C(N)C1` [Compound 32] are 10 to 100 nM and 10 to 50 nM.
As for `CCCN(OCc1ccc(N)cc1)C(=O)C1=Cc2ccc(C(=O)NC3CCOCC3)cc2N=C(N)C1` [Compound 84], the EC50 in experiment [1] (class symbols) was 10 to 100 nM; in experiment [2] (setting [3]) it was ≤ 10 nM.
As for `CCCN(OCc1ccc(N)cc1)C(=O)C1=Cc2ccc(C(=O)Nc3ccc4cn[nH]c4c3)cc2N=C(N)C1` [Compound 89], the concentration giving a half-maximal response (EC50) was 10 to 100 nM in experiment [1] (class symbols) and 10 to 50 nM in experiment [2] (setting [3]).
Turning to `CCCN(OCc1ccc(N)cc1)C(=O)C1=Cc2ccc(-c3cncc(CN)c3)cc2N=C(N)C1` [Compound 54], the results for the EC50 in experiment [1] and in experiment [2] (serial 3-fold dilutions) were < 1.5 nM and 3.98 nM, respectively.
Turning to `CCCN(OCc1ccc(N)cc1)C(=O)C1=Cc2ccc(C(=O)Nc3cccnc3)cc2N=C(N)C1` [Compound 40], the concentration for a half-maximal effect (EC50) in experiment [1] amounted to 2.5 nM; in experiment [2] (serial 3-fold dilutions), 9.08 nM.
With `CCCN(OCc1ccc(N)cc1Cl)C(=O)C1=Cc2ncc(-c3cncc(CO)c3)cc2N=C(N)C1` [Compound 59], the EC50 in experiment [1] (class symbols) and in experiment [2] (setting [3]) was ≤ 10 nM in each case.
As for `CCCN(OCc1ccc(N)cc1)C(=O)C1=Cc2ccc(-c3cccc(S(=O)(=O)N4CCC(O)CC4)c3)cc2N=C(N)C1` [Compound 66], the half-maximal effective concentration (EC50) in experiment [1] (class symbols) and in experiment [2] (setting [3]) was ≤ 10 nM throughout.
With `CCCN(OCc1ccc(N)cc1)C(=O)C1=Cc2ccc(C(=O)Nc3ccn(C)n3)cc2N=C(N)C1` [Compound 88], the EC50 in experiment [1] (class symbols) and in experiment [2] (setting [3]) was ≤ 10 nM each time.
For the molecule `CCCN(OCc1ccc(N)cc1)C(=O)C1=Cc2ccc(-c3cncc(CO)c3)nc2N=C(N)C1` [Compound 62], the EC50 in experiment [1] (class symbols) and in experiment [2] (setting [3]) was ≤ 10 nM each time.
